Reference: EP1652531A1, “Use of GLP-1 or Analogues in Treatment of Stroke” (Eli Lilly & Company, priority 1998, dated 2006)

Legend:
[1] = tested on: NIDDM patients; assay: Infusion for three hours at each meal during the day, blood glucose in NIDDM patients (Example 2); details: five NIDDM patients
[2] = tested on: patients having non-insulin dependent diabetes (NIDDM); assay: Overnight continuous subcutaneous infusion, blood glucose in NIDDM patients (Example 1); details: five NIDDM patients; subcutaneous infusion 1.2 pmol/kg/hr for ten hours during the night
[3] = tested on: STC-1 cells; details: exposure of STC-1 cells (Abella et al., 1994); cited from earlier work

Molecule | untoward side effects [1] | hypoglycemia [2] | release of GLP-1 [3]
CC[C@H](C)[C@H](NC(=O)[C@H](Cc1ccccc1)NC(=O)[C@H](CCC(=O)O)NC(=O)[C@H](CCCCN)NC(=O)[C@H](C)NC(=O)[C@H](C)NC(=O)[C@H](CCC(N)=O)NC(=O)CNC(=O)[C@H](CCC(=O)O)NC(=O)[C@H](CC(C)C)NC(=O)[C@H](Cc1ccc(O)cc1)NC(=O)[C@H](CO)NC(=O)[C@H](CO)NC(=O)[C@@H](NC(=O)[C@H](CC(=O)O)NC(=O)[C@H](CO)NC(=O)[C@@H](NC(=O)[C@H](Cc1ccccc1)NC(=O)[C@@H](NC(=O)CNC(=O)[C@H](CCC(=O)O)NC(=O)[C@H](C)NC(=O)[C@@H](N)Cc1c[nH]cn1)[C@@H](C)O)[C@@H](C)O)C(C)C)C(=O)N[C@@H](C)C(=O)N[C@@H](Cc1c[nH]c2ccccc12)C(=O)N[C@@H](CC(C)C)C(=O)N[C@H](C(=O)N[C@@H](CCCCN)C(=O)NCC(=O)N[C@@H](CCCNC(=N)N)C(N)=O)C(C)C [GLP-1(7-36) amide] | No untoward side effects | without inducing hypoglycemia in any of the patients | –
12-O-tetradecanoylphobol-13-acetate [TPA] | – | – | significant increases
